One test deals with T1, rePON1 (G3H8) (Oryctolagus cuniculus, UniProt P27170, A301G/A320V/A67S/G19R/H177S/I126T/I187A/K138S/K151R/K297E/K93E/L143V/L7P/M130L/M341L/P82S/S101G/V343I).
T1 construct: leaving the intact, 355 amino acids, PON1 protein without any additions; made in house; host or cells: E. coli Origami B (DE3), truncated pET32 vector without Trx, His and S tags
Kind of test: biochemical.

The target of test [1] is T2, HuPON1 purified from serum (Homo sapiens, UniProt P27169).
T2 construct: measured for hydrolysis of phenylacetate by serum huPON1; host or cells: human serum
T2 sequence (P27169 whole entry): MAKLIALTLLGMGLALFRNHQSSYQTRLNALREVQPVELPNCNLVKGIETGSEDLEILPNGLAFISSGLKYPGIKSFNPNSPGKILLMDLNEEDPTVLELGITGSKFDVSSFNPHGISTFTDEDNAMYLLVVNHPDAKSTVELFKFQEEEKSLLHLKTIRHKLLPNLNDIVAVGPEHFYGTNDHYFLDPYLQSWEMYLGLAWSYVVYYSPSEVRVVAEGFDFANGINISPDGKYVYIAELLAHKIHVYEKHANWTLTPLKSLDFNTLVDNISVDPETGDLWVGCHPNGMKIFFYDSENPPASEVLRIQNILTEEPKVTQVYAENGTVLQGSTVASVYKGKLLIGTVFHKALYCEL
As to conditions: read-out: Ki for 2-hydroxyquinoline inhibition of phenyl acetate hydrolysis by HuPON1 purified from serum; cited from earlier work.

“And” between values parts separate entries of the source, which are not always exact repeats. Equal values may be shown once.

T1 sequence (P27170 with tags, fused parts or gaps with the stated changes): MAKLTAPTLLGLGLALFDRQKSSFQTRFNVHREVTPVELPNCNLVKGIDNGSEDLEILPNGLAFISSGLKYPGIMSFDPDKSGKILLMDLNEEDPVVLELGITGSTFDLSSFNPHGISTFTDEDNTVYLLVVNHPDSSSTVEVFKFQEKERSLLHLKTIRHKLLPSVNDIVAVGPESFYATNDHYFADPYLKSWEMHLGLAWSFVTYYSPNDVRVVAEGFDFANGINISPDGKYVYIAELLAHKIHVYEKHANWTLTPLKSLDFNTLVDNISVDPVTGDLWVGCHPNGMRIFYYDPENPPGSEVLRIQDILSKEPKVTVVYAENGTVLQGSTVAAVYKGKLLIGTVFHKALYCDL

For `Oc1ccc2ccccc2n1` [2-hydroxyquinoline], the Ki on rePON1 (G3H8) (Inhibition constant (Ki)) was 11 µM and 3 µM and 4.2 µM; on rePON1 (G3H8) (inhibition constants for phenyl-acetate, paraxon and L-HcyT hydrolysis), 3 to 11 µM; in test [1], roughly 5 µM.
